Test system: BAX
Experiment: In cellulo BRET between TCTP and YFP-fused BAX
Assay type: cell-based
Conditions: MCF-7 cells; donor TCTP, acceptor YFP-fused BAX
Method: BRET assays were performed as indicated in Bah et al.[41]. See Supplementary Information for full details.
-3Δ before cloning into a pnEA -TH plasmid for expression of an N-terminal 6His fusion protein using NdeI and BamHI restriction sites25. The cDNA of human Bcl-xL protein, target gene bank number BC019307, was ordered from PlasmID (DANA-FARBER/HARVARD CANCER CENTER). Bcl-xL(Δ27-81ΔCT) (deletion of residues 27-81 and C-terminal 24 residues) was cloned in a pnEA-TH25 plasmid for expression as a N-terminal 6His fusion protein. Primers used for the deletion of the C-terminal part are 5'- […]
TTTCG-3', including NdeI and BglII restriction sites respectively. […]
BRET assays were performed as indicated in Bah et al.26. […] Light emissions at 475 nm and 530 nm were measured sequentially using the Mithras ﬂuorescence luminescence detector […]
LB 940 (Berthold, Thoiry, France) after adding the luciferase substrate coelenterazine H (Uptima, MontLucon, France) at a ﬁnal concentration of […]. BRET signals (mB.U,milliBRET Unit) were determined by calculating the ra tio of the light emitted by the acceptor (530 nm) over the light emitted by the donor (475 nm). Background BRET signals, determined by transient transfection of pCMV-Bcl-xL or pCMV-Bax instead of the corresponding pEYFP plasmids, were subtracted from YFP-specific BRET signals. […]

Substance: TCTP: Translationally Controlled Tumor Protein (TCTP/tpt1), recombinant full-length
- BRET signals with BAX: no specific BRET signals

From publication PMC4728560 (Scientific Reports, 2016)
